Measured values reported in US20070237734A1, “ANTI-WRINKLE COSMETIC COMPOSITION” (L'OREAL, priority 2006, published 2007).

Tested on: normal human fibroblasts
Test: Dermo-decontracting effect on dermal equivalent model (collagen matrix inoculated with fibroblasts), spontaneous contraction
Type: cell-based
Conditions: for % contraction: test compound 10 μM, dermal equivalent surface area at 0, 4, 8 and 24 hours, with respect to the control
Source text: The principle of this test consists in studying the effect of the test product on a dermal equivalent model composed of a collagen matrix inoculated with normal human fibroblasts.
These conditions are intended to mimic in vitro the dermal contractile phenomena which occur during facial expressions. This is because, under these conditions, the cells spontaneously express tensile forces which induce retraction of the collagen gel. […] The measurement of this surface area makes it possible to evaluate the relaxing effects of the substances brought into contact beforehand with the dermal equivalent.
Two series of attached dermal equivalents comprising normal human fibroblasts are prepared: a control series without any treatment and a series treated with the test compound (10 μM). The experiment is repeated three times.
The dermal equivalents are prepared as described in Asselineau et al., Exp. Cell. Res., 1985, 159, 536-539; Models in Dermatology, 1987, vol. 3, pp. 1-7, in the following proportions:
The treated dermal equivalent differs from the control dermal equivalent in that 10 μM of the test compound are added thereto.
The collagen used is type I collagen (commercial solution). It is extracted from calf skin by acid hydrolysis and stored in an acidic medium at +4° C. It polymerizes naturally by reheating to 37° C. and by decreasing the degree of acidity. The collagen is dialysed beforehand against successive baths of water+acetic acid.
The protocol is as follows: the 1.76×MEM medium is introduced, in the presence of additives (1% glutamine, 1% non-essential amino acids, 1% sodium pyruvate, 1% fungizone and 1% penicillin/streptomycin), the foetal calf serum and the 0.1N NaOH solution, into a 50 ml centrifuge tube stored in crushed ice. The fibroblasts, isolated from human skin explants, are then added at the concentration of 1.5×10^5 cells per 1 ml of culture medium.
A volume/volume mixture of collagen in acetic acid at 1/1000 is then slowly added, against the wall of the tube, so as to observe the appearance of a whitish cloud.
The combined product is then carefully mixed and distributed in the wells of a 12-well culture plate (Costar type, reference 3512) in a proportion of 2 ml of mixture per well. The final cell concentration is […], with a final concentration of collagen of 1 mg/ml. The culture plate is then placed in an incubator at 37° C. with 5% CO2.
Once formed after polymerization of the collagen, the dermal equivalents are left adhered to the culture support for 3 days and then detached from the support so that the contraction can begin. These detached dermal equivalents are taken out of the incubator in order to take images for the purpose of measuring their surface area, this being for each point of the kinetics of contraction (0, 4, 8 and 24 hours). They are immediately placed back in the incubator between each measurement point.
The evaluation of the spontaneous contraction of the treated (with the test compound) and control (without test compound) dermal equivalents is carried out by measuring their surface area at the different times mentioned after the beginning of the spontaneous contraction.
For this, a digital image is acquired for each treated or untreated dermal equivalent by means of a camera (CCD camera-Iris Sony DXC-107P) and the surface area is subsequently calculated on each image by means of an image analysis system (Zeiss Axiovision 3.0). […]

SMILES | % contraction | reduce the contraction of the fibroblasts, on average over the duration of the experiment, with respect to the control (tested at 10 μM)
CCCCCCCCOC[C@H]1O[C@@H](n2cnc3c(N)ncnc32)[C@@H]2OC(C)(C)O[C@@H]21 [Compound E, 2′,3′-isopropylidene-5′-octyladenosine] | −26% | –
CC(=O)OC[C@H]1O[C@@H](n2cnc3c(N)ncnc32)[C@@H]2OC(C)(C)O[C@@H]21 [Compound G, 2′,3′-isopropylidene-5′-acetyladenosine] | −30% | –
Nc1ncnc2c1ncn2[C@@H]1O[C@H](CO)[C@@H](O)[C@H]1O [Adenosine, reference compound] | −15% | 15%
CCOC[C@H]1O[C@@H](n2cnc3c(N)ncnc32)[C@@H]2OC(C)(C)O[C@@H]21 [Compound D, 2′,3′-isopropylidene-5′-ethyladenosine] | −21% | –
